# Laboratory results: patent US20230024302A1, “2,3,5-TRISUBSTITUTED PYRAZOLO[1,5-A]PYRIMIDINE COMPOUNDS” (Arcus Biosciences, Inc., priority 2019, published 2023)
# What was measured:
# PI3Kγ (p120γ) = molecular target: T1, PI3Kγ (p120γ) (Homo sapiens, UniProt P48736); assay: Inhibition of PI3K kinase activity (ADP Glo), PI3Kγ; settings: Table 1, p120γ, read-out: biochemical potency (PI3Kγ IC50)
# T1 construct: purchased Promega V1761
# Outline: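 IC50 values come from a 4-parameter nonlinear fit of ADP-Glo luminescence, which measures ADP produced as PIP2 is phosphorylated to PIP3. The p120γ enzyme (2× stock 8 nM) sat with compound 1 h at rt before substrate (2× stocks: 50 μM ATP, 0.1 mg/ml PIP2) was added. Phosphorylation then proceeded 60 min at rt.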
# PI3Kγ = molecular target: T2, PI3Kγ (Homo sapiens, UniProt P48736); assay: PI3Kγ cellular assay in THP-1 cells (AKT pS473 AlphaLISA); assay type: cell-based; settings: Table 1, rhMCP-1 stimulated AKT pS473, read-out: cellular potency (PI3Kγ IC50)
# T2 construct: host or cells: THP-1
# Outline: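 Endogenous AKT S473 phosphorylation, detected by AlphaLISA in lysates, serves as the PI3Kγ activity read-out in stimulated, serum-starved THP-1 cells (1.8×10^5/well).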
# T1 sequence (P48736 whole entry): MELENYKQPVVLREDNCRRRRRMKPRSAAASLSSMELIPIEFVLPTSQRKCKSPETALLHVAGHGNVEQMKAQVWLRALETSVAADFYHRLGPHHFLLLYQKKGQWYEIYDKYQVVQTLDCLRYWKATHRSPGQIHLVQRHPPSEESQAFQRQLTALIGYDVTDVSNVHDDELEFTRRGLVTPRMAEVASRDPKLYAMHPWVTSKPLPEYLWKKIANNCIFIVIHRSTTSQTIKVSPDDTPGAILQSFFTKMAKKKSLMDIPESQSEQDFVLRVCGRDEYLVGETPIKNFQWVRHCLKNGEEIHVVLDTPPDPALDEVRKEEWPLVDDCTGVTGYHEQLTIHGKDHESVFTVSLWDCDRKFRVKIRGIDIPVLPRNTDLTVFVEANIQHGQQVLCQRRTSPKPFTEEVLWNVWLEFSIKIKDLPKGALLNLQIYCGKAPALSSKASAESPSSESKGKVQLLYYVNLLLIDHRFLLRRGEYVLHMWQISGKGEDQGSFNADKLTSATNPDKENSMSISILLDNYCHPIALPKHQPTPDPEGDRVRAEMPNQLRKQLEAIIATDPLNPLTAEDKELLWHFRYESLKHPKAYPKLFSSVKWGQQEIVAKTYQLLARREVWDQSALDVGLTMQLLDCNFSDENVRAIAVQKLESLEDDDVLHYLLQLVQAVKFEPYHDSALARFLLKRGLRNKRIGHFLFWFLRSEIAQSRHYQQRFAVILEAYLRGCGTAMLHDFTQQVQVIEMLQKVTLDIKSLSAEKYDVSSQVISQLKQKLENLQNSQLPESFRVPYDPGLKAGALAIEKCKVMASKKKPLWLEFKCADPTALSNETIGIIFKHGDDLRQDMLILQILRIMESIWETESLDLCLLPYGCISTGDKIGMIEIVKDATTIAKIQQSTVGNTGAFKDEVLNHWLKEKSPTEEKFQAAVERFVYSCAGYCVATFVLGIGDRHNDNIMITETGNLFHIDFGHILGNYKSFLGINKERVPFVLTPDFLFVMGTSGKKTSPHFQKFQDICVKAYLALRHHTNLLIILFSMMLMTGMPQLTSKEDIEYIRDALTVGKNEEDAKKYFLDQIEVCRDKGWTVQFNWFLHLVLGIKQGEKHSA
# T2 sequence (P48736 whole entry): as above
SMILES,IC50 (PI3Kγ (p120γ)),IC50 (PI3Kγ)
"C[C@@H](C1CC1)N1Cc2cc(-c3ccn4nc(N)c(C(=O)NC5(C#N)CCC5)c4n3)cc(NS(C)(=O)=O)c2C1=O [Example 81, 2-Amino-N-(1-cyanocyclobutyl)-5-{2-[(1S)-1-cyclopropylethyl]-7-methanesulfonamido-1-oxo-2,3-dihydro-1H-isoindol-5-yl}pyrazolo[1,5-a]pyrimidine-3-carboxamide]",< 100 nM,< 100 nM
"C[C@@H](C1CC1)N1Cc2cc(-c3ccn4nc(N)c(C(=O)N[C@H]5C[C@](C)(O)C5)c4n3)cc(NS(C)(=O)=O)c2C1=O [Example 82, 2-Amino-5-{2-[(1S)-1-cyclopropylethyl]-7-methanesulfonamido-1-oxo-2,3-dihydro-1H-isoindol-5-yl}-N-[trans-3-hydroxy-3-methylcyclobutyl]pyrazolo[1,5-a]pyrimidine-3-carboxamide]",< 100 nM,< 100 nM
"C[C@@H](C1CC1)N1Cc2cc(-c3ccn4nc(N)c(C(=O)N[C@]5(C)C[C@@H](O)C5)c4n3)cc(NS(C)(=O)=O)c2C1=O [Example 83, 2-Amino-5-{2-[(1S)-1-cyclopropylethyl]-7-methanesulfonamido-1-oxo-2,3-dihydro-1H-isoindol-5-yl}-N-[trans-3-hydroxy-1-methylcyclobutyl]pyrazolo[1,5-a]pyrimidine-3-carboxamide]",< 100 nM,< 100 nM
"CO[C@H]1C[C@H](NC(=O)c2c(N)nn3ccc(-c4cc5c(c(NS(C)(=O)=O)c4)C(=O)N([C@@H](C)C4CC4)C5)nc23)C1 [Example 84, 2-Amino-5-{2-[(1S)-1-cyclopropylethyl]-7-methanesulfonamido-1-oxo-2,3-dihydro-1H-isoindol-5-yl}-N-[trans-3-methoxycyclobutyl]pyrazolo[1,5-a]pyrimidine-3-carboxamide]",< 100 nM,< 100 nM
"C[C@@H](C1CC1)N1Cc2cc(-c3ccn4nc(N)c(C(=O)NC[C@H]5C[C@H](O)C5)c4n3)cc(NS(C)(=O)=O)c2C1=O [Example 85, 2-Amino-5-{2-[(1S)-1-cyclopropylethyl]-7-methanesulfonamido-1-oxo-2,3-dihydro-1H-isoindol-5-yl}-N-{[trans-3-hydroxycyclobutyl]methyl}pyrazolo[1,5-a]pyrimidine-3-carboxamide]",< 100 nM,< 100 nM
"C[C@@H](C1CC1)N1Cc2cc(-c3ccn4nc(N)c(C(=O)N[C@@H]5CC[C@@H](O)C5)c4n3)cc(NS(C)(=O)=O)c2C1=O [Example 86, 2-Amino-5-{2-[(1S)-1-cyclopropylethyl]-7-methanesulfonamido-1-oxo-2,3-dihydro-1H-isoindol-5-yl}-N-[(1R,3R)-3-hydroxycyclopentyl]pyrazolo[1,5-a]pyrimidine-3-carboxamide]",< 100 nM,< 100 nM
"C[C@@H](C1CC1)N1Cc2cc(-c3ccn4nc(N)c(C(=O)NC5CC5)c4n3)cc(NS(C)(=O)=O)c2C1=O [Example 87, 2-Amino-N-cyclopropyl-5-{2-[(1S)-1-cyclopropylethyl]-7-methanesulfonamido-1-oxo-2,3-dihydro-1H-isoindol-5-yl}pyrazolo[1,5-a]pyrimidine-3-carboxamide]",< 100 nM,< 100 nM
"C[C@@H](C1CC1)N1Cc2cc(-c3ccn4nc(N)c(C(=O)N[C@@H]5COC[C@H]5O)c4n3)cc(NS(C)(=O)=O)c2C1=O [Example 88, 2-Amino-5-{2-[(1S)-1-cyclopropylethyl]-7-methanesulfonamido-1-oxo-2,3-dihydro-1H-isoindol-5-yl}-N-[(3R,4S)-4-hydroxyoxolan-3-yl]pyrazolo[1,5-a]pyrimidine-3-carboxamide]",< 100 nM,< 100 nM
"C[C@@H](C1CC1)N1Cc2cc(-c3ccn4nc(N)c(C(=O)N[C@H]5CC[C@@](C)(O)CC5)c4n3)cc(NS(C)(=O)=O)c2C1=O [Example 89, 2-Amino-5-{2-[(1S)-1-cyclopropylethyl]-7-methanesulfonamido-1-oxo-2,3-dihydro-1H-isoindol-5-yl}-N-[cis-4-hydroxy-4-methylcyclohexyl]pyrazolo[1,5-a]pyrimidine-3-carboxamide]",< 100 nM,< 100 nM
"C[C@@H](C1CC1)N1Cc2cc(-c3ccn4nc(N)c(C(=O)N[C@H]5CC[C@](O)(C(F)(F)F)CC5)c4n3)cc(NS(C)(=O)=O)c2C1=O [Example 90, 2-Amino-5-{2-[(1S)-1-cyclopropylethyl]-7-methanesulfonamido-1-oxo-2,3-dihydro-1H-isoindol-5-yl}-N-[cis-4-hydroxy-4-(trifluoromethyl)cyclohexyl]pyrazolo[1,5-a]pyrimidine-3-carboxamide]",< 100 nM,< 100 nM
"C[C@@H](C1CC1)N1Cc2cc(-c3ccn4nc(N)c(C(=O)N[C@H]5CC[C@H](C(C)(C)O)CC5)c4n3)cc(NS(C)(=O)=O)c2C1=O [Example 91, 2-Amino-5-{2-[(1S)-1-cyclopropylethyl]-7-methanesulfonamido-1-oxo-2,3-dihydro-1H-isoindol-5-yl}-N-[trans-4-(2-hydroxypropan-2-yl)cyclohexyl]pyrazolo[1,5-a]pyrimidine-3-carboxamide]",< 100 nM,< 100 nM
"C[C@@H](C1CC1)N1Cc2cc(-c3ccn4nc(N)c(C(=O)N[C@H]5CC[C@H](C6(O)CC6)CC5)c4n3)cc(NS(C)(=O)=O)c2C1=O [Example 92, 2-Amino-5-{2-[(1S)-1-cyclopropylethyl]-7-methanesulfonamido-1-oxo-2,3-dihydro-1H-isoindol-5-yl}-N-[trans-4-(1-hydroxycyclopropyl)cyclohexyl]pyrazolo[1,5-a]pyrimidine-3-carboxamide]",< 100 nM,< 100 nM

# Next, values leading:
IC50 (PI3Kγ (p120γ)),IC50 (PI3Kγ),SMILES
< 100 nM,< 100 nM,"C[C@@H](C1CC1)N1Cc2cc3cc(c2C1=O)OCCOCCNC(=O)c1c(N)nn2ccc-3nc12 [Example 71, 6-[(S)-1-Cyclopropylethyl]-19-amino-10.13-dioxa-6.16.20.21.24-pentaazapentacyclo[16.5.2.12,9.04,8.021,25]hexacosa-1(24),2,4(8),9(26),18(25),19,22-heptaene-7,17-dione]"
< 100 nM,< 100 nM,"C[C@@H](C1CC1)N1Cc2cc(-c3ccn4nc(N)c(C(=O)N[C@@H]5CCC[C@H]5O)c4n3)cc(NS(C)(=O)=O)c2C1=O [Example 72, 2-Amino-5-{2-[(1S)-1-cyclopropylethyl]-7-methanesulfonamido-1-oxo-2,3-dihydro-1H-isoindol-5-yl}-N-[(1R,2R)-2-hydroxycyclopentyl]pyrazolo[1,5-a]pyrimidine-3-carboxamide]"
< 100 nM,< 100 nM,"CNC(=O)c1c(N)nn2ccc(-c3cc4c(c(NS(C)(=O)=O)c3)C(=O)N([C@@H](C)C3CC3)C4)nc12 [Example 73, 2-Amino-5-{2-[(1S)-1-cyclopropylethyl]-7-methanesulfonamido-1-oxo-2,3-dihydro-1H-isoindol-5-yl}-N-methylpyrazolo[1,5-a]pyrimidine-3-carboxamide]"
< 100 nM,< 100 nM,"CCNC(=O)c1c(N)nn2ccc(-c3cc4c(c(NS(C)(=O)=O)c3)C(=O)N([C@@H](C)C3CC3)C4)nc12 [Example 74, 2-Amino-5-{2-[(1S)-1-cyclopropylethyl]-7-methanesulfonamido-1-oxo-2,3-dihydro-1H-isoindol-5-yl}-N-ethylpyrazolo[1,5-a]pyrimidine-3-carboxamide]"
< 100 nM,< 100 nM,"CC(C)NC(=O)c1c(N)nn2ccc(-c3cc4c(c(NS(C)(=O)=O)c3)C(=O)N([C@@H](C)C3CC3)C4)nc12 [Example 75, 2-Amino-5-{2-[(1S)-1-cyclopropylethyl]-7-methanesulfonamido-1-oxo-2,3-dihydro-1H-isoindol-5-yl}-N-(propan-2-yl)pyrazolo[1,5-a]pyrimidine-3-carboxamide]"
< 100 nM,100 to 1000 nM,"C[C@@H](C1CC1)N1Cc2cc(-c3ccn4nc(N)c(C(N)=O)c4n3)cc(NS(C)(=O)=O)c2C1=O [Example 76, 5-{2-[(S)-1-Cyclopropylethyl]-7-(methylsulfonylamino)-5-isoindolinoyl}-2-amino-1,4,7a-triaza-3-indenecarboxamide]"
< 100 nM,< 100 nM,"C[C@@H](C1CC1)N1Cc2cc(-c3ccn4nc(N)c(C(=O)NC5CC56CC6)c4n3)cc(NS(C)(=O)=O)c2C1=O (stereo partly drawn) [Example 77, 2-[(S)-1-Cyclopropylethyl]-5-(2-amino-3-{(1-spiro[2.2]pentylamino)carbonyl}-1,4,7a-triaza-5-indenyl)-7-(methylsulfonylamino)-1-isoindolinone]"
< 100 nM,< 100 nM,"C[C@@H](C1CC1)N1Cc2cc(-c3ccn4nc(N)c(C(=O)NC5COC5)c4n3)cc(NS(C)(=O)=O)c2C1=O [Example 78, 2-Amino-5-{2-[(1S)-1-cyclopropylethyl]-7-methanesulfonamido-1-oxo-2,3-dihydro-1H-isoindol-5-yl}-N-(oxetan-3-yl)pyrazolo[1,5-a]pyrimidine-3-carboxamide]"
< 100 nM,< 100 nM,"C[C@@H](C1CC1)N1Cc2cc(-c3ccn4nc(N)c(C(=O)NC5(C)COC5)c4n3)cc(NS(C)(=O)=O)c2C1=O [Example 79, 2-Amino-5-{2-[(1S)-1-cyclopropylethyl]-7-methanesulfonamido-1-oxo-2,3-dihydro-1H-isoindol-5-yl}-N-(3-methyloxetan-3-yl)pyrazolo[1,5-a]pyrimidine-3-carboxamide]"
< 100 nM,< 100 nM,"C[C@@H](C1CC1)N1Cc2cc(-c3ccn4nc(N)c(C(=O)NC5(C#N)COC5)c4n3)cc(NS(C)(=O)=O)c2C1=O [Example 80, 2-Amino-N-(3-cyanooxetan-3-yl)-5-{2-[(1S)-1-cyclopropylethyl]-7-methanesulfonamido-1-oxo-2,3-dihydro-1H-isoindol-5-yl}pyrazolo[1,5-a]pyrimidine-3-carboxamide]"
